Patent publication US8629277B2, “Styrenyl 1,2,4-oxadiazole compounds” (Piramal Enterprises Limited, priority 2010, dated 2014)

Assays:
K562 [1] = test: Cell proliferation and cytotoxicity CCK-8 assay; format: cell-based, human; settings: Homo sapiens; imatinib sensitive cell line K562; CCK-8, 72 h; read-out: Inhibitory concentrations (IC50) K562
Ba/F3 Bcr-Abl/Q252H = molecular target: T1, Ba/F3 Bcr-Abl/Q252H (Homo sapiens, UniProt P00519, Q252H, cells depend on it); test: Cell proliferation and cytotoxicity CCK-8 assay; format: cell-based; settings: mouse, 72 h
T1 construct: fused on or other part: P11274 (Breakpoint cluster region protein)

K562 [2] = test: Flow cytometric analysis of apoptosis (PI staining); format: cell-based, human
Experimental: (§1) Effect of the Compounds of Present Invention in Bcr-Abl Mutated Imatinib Mesylate-Resistant Cell Lines on Cell Cycle and Apoptosis Using Flow Cytometry.
(§2) The assay was carried out as in reference, FEBS Letters, 2007, 581, 7, 1329-1334. […] At the end of incubation, cells were harvested by centrifugation at 1000 rpm for 10 minutes, washed with phosphate buffered saline (PBS) and gradually resuspended in 70% ice-cold ethanol (to facilitate the permeablisation of stains). Cell suspension was stored for a minimum period of 4 h before staining with propidium iodide (PI). Fixed cells were stained with PI (80 μg/mL) in presence of RNase A (50 μg/mL), and read on Becton Dickinson FACS Calibur (USA) for cell cycle analysis.

Ba/F3 Bcr-Abl/E255K = molecular target: T2, Ba/F3 Bcr-Abl/E255K (Homo sapiens, UniProt P00519, E255K, cells depend on it); test: Cell proliferation and cytotoxicity CCK-8 assay; format: cell-based; settings: mouse, 72 h
T2 construct: fused on or other part: P11274 (Breakpoint cluster region protein)

Ba/F3 Bcr-Abl/F317L = molecular target: T3, Ba/F3 Bcr-Abl/F317L (Homo sapiens, UniProt P00519, F317L, cells depend on it); test: Cell proliferation and cytotoxicity CCK-8 assay; format: cell-based; settings: mouse, 72 h
T3 construct: fused on or other part: P11274 (Breakpoint cluster region protein)

Ba/F3 Bcr-Abl/T315I = test: In-vivo efficacy in imatinib-resistant xenograft model in SCID mice; settings: 200 mpk b.i.d., p.o.
Experimental: Cell lines Ba/F3 transfectants expressing full-length wild type imatinib sensitive (Ba/F3 Bcr-Abl/WT) or mutated imatinib resistant (Ba/F3 Bcr-Abl/T315I) were used in this study.
Required compound was weighed and admixed with 0.5% (w/v) carboxymethylcellulose (CMC) and triturated with Tween-20 (secundum artum) with gradual addition of water to make up the final concentration.
Ba/F3 Bcr-Abl/WT cells and Ba/F3 Bcr-Abl/T315I cells were grown in RPMI1640 medium containing 10% fetal calf serum in 5% CO2 incubator at 37° C. Cells were pelleted by centrifugation at 1000-rpm for 10 minutes. Cells were resuspended in saline to get a count of 80-100×10^6 cells per mL, 0.2 mL of this cell suspension was injected by subcutaneous (s.c.) route in SCID mice. Mice were observed alternate days for palpable tumor mass. Once the tumor size reached a size of 5-7 mm in diameter, animals were randomized into respective treatment groups. Dose of control or test compound was administered every day. Tumor size was recorded at 2-5 day intervals. Tumor weight (mg) was estimated according to the formula for a prolate ellipsoid: {Length (mm)×[width (mm)^2]×0.5} assuming specific gravity to be one and π to be three. Tumor growth in compound treated animals is calculated as T/C (Treated/Control)×100% and Growth inhibition Percent (GI %) was [100−T/C %].

Ba/F3 = test: Flow cytometric analysis of apoptosis (PI staining); format: cell-based
Experimental: as §1, §2

T315I = test: as above; format: cell-based
Experimental: as §1, §2

E255V = test: as above; format: cell-based
Experimental: as §1, §2

Y253 = test: as above; format: cell-based
Experimental: as §1, §2

Ba/F3 Bcr-Abl/Y253F = molecular target: T4, Ba/F3 Bcr-Abl/Y253F (Homo sapiens, UniProt P00519, Y253F, cells depend on it); test: Cell proliferation and cytotoxicity CCK-8 assay; format: cell-based; settings: mouse, 72 h
T4 construct: fused on or other part: P11274 (Breakpoint cluster region protein)

Ba/F3 Bcr-Abl/M351T = molecular target: T5, Ba/F3 Bcr-Abl/M351T (Homo sapiens, UniProt P00519, M351T, cells depend on it); test: Cell proliferation and cytotoxicity CCK-8 assay; format: cell-based; settings: mouse, 72 h
T5 construct: fused on or other part: P11274 (Breakpoint cluster region protein)

Ba/F3 Bcr-Abl/Y253H = molecular target: T6, Ba/F3 Bcr-Abl/Y253H (Homo sapiens, UniProt P00519, Y253H, cells depend on it); test: Cell proliferation and cytotoxicity CCK-8 assay; format: cell-based; settings: mouse, 72 h
T6 construct: fused on or other part: P11274 (Breakpoint cluster region protein)

TGFβ = TGFβ assay, Western blot analysis in Ba/F3 Bcr-Abl/T315I cells; format: cell-based; settings: T315I cell line, 3×IC50, 72 h, FIG. 3
Experimental: TGFβ is a prime candidate for maintaining the CML stem cells in a non-cycling state. […] TGFβ plays a vital role in the preservation of the malignant progenitor population, and is partially responsible for the resistance to treatments targeting Bcr-Abl observed in a proportion of CML patients.
The Western Blot assay was carried out as in reference, Analytical Biochemistry, 1981, 112, 2, 195-203.
Western blot analysis was performed to decipher the mechanism of action of compounds of the present invention. […] The cells were incubated in a humidified incubator for 2-4 h at 37° C. […] Cells were then incubated for 72 h. Following the incubation, cells were harvested, washed with ice-cold phosphate buffered saline (PBS) and lysed with cold Cell Lytic buffer (Sigma Aldrich) supplemented with complete protease inhibitor cocktail (Roche, Germany). The protein extracts were obtained after centrifugation at 14,000 g at 4° C. (30 min). Aliquots of the resulting extracts were analyzed for their protein content using Bradford Reagent (Sigma) as per the manufacturer's instructions. In all the experiments, equivalent amounts of protein (70 μg) were loaded on 7.5%-10% Tris-glycine gels and resolved at 100 V for 2 h in a buffered solution (24.9 mM Tris base, 250 mM glycine, 0.1% SDS (sodium dodecyl sulfate)). […]

SMILES	IC50 (K562 [1]) [µM]	GI50 (Ba/F3 Bcr-Abl/Q252H) [µM]	% Apoptosis by Flow Cytometry Analysis (K562 [2]; 3X IC50, 96 h time point) [%]	% Apoptosis by Flow Cytometry Analysis (K562 [2]; 5X IC50, 48 h time point) [%]	% Apoptosis by Flow Cytometry Analysis (K562 [2]; 5X IC50, 96 h time point) [%]	GI50 (Ba/F3 Bcr-Abl/E255K) [µM]	GI50 (Ba/F3 Bcr-Abl/F317L) [nM]	Tumor growth inhibition percent (% GI) Ba/F3 Bcr-Abl/T315I (Ba/F3 Bcr-Abl/T315I) [%]	% Apoptosis by Flow Cytometry Analysis (Ba/F3; 3X IC50, 96 h time point) [%]	% Apoptosis by Flow Cytometry Analysis (Ba/F3; 5X IC50, 48 h time point) [%]	% Apoptosis by Flow Cytometry Analysis (Ba/F3; 5X IC50, 96 h time point) [%]	% Apoptosis by Flow Cytometry Analysis (T315I; 3X IC50, 96 h time point) [%]	% Apoptosis by Flow Cytometry Analysis (T315I; 5X IC50, 48 h time point) [%]	% Apoptosis by Flow Cytometry Analysis (T315I; 5X IC50, 96 h time point) [%]	% Apoptosis by Flow Cytometry Analysis (E255V; 3X IC50, 96 h time point) [%]	% Apoptosis by Flow Cytometry Analysis (E255V; 5X IC50, 48 h time point) [%]	% Apoptosis by Flow Cytometry Analysis (E255V; 5X IC50, 96 h time point) [%]	% Apoptosis by Flow Cytometry Analysis (Y253; 3X IC50, 96 h time point) [%]	% Apoptosis by Flow Cytometry Analysis (Y253; 5X IC50, 48 h time point) [%]	% Apoptosis by Flow Cytometry Analysis (Y253; 5X IC50, 96 h time point) [%]	other results
CCCc1noc(C=Cc2ccc(O)c(O)c2)n1 [Compound of Example 3, 4-[2-(3-Propyl-[1,2,4]oxadiazol-5-yl)-vinyl]-benzene-1,2-diol]	11 to 100	2.6 ± 0.84	5	12.7	3.4	5.4	1950 ± 210	54	95	46	84	78	97.6	85	78	91.2	90.9	62	87.5	94.9	GI50 (Ba/F3 Bcr-Abl/Y253F): 1500 ± 560 nM; GI50 (Ba/F3 Bcr-Abl/M351T): 5.7 ± 1.7 µM; GI50 (Ba/F3 Bcr-Abl/Y253H): 1700 ± 780 nM; p-Smad2 and p-Smad3, effector target molecules of TGFβ signaling (TGFβ): strongly downregulated
Oc1ccc(C=Cc2nc(Cc3ccccc3)no2)cc1O [Compound of Example 4, 4-[2-(3-Benzyl-[1,2,4]oxadiazol-5-yl)-vinyl]-benzene-1,2-diol]	11 to 100	3.65 ± 0.65	10	12.2	5.2	> 10	2850 ± 350	65	97	46	93	80.58	98.2	63.9	94.4	93	97.4	70.6	89	96.6	GI50 (Ba/F3 Bcr-Abl/Y253F): 2100 ± 140 nM; GI50 (Ba/F3 Bcr-Abl/M351T): 7.5 ± 0.7 µM; GI50 (Ba/F3 Bcr-Abl/Y253H): 2500 ± 750 nM; p-Smad2 and p-Smad3, effector target molecules of TGFβ signaling (TGFβ): strongly downregulated
